Measured values reported in article PMC4188605, “Biochemical and Pharmacological Characterization of the Human Lymphocyte Antigen B-Associated Transcript 5 (BAT5/ABHD16A)” (PLoS ONE, 2014).
“And” between values parts separate entries of the source, which are not always exact repeats. Equal values may be shown once. Read-outs that look alike come from different tables or passages of the source.

Experiments:
[1] = target: T1, ABHD6 (Mus musculus, UniProt Q8R2Y0); assay: Competitive ABPP, mouse brain membrane proteome: ABHD6 band
T1 sequence (Q8R2Y0 1-336): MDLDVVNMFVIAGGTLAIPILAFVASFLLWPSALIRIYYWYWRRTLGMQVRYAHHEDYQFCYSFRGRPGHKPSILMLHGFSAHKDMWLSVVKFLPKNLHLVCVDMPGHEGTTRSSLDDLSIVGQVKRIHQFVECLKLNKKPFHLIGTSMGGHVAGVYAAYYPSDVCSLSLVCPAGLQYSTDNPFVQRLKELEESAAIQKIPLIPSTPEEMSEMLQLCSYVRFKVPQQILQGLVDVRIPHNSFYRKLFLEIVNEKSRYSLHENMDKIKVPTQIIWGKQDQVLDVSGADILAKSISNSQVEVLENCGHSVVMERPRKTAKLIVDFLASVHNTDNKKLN

[2] = target: T2, FAAH (Mus musculus, UniProt O08914); assay: Competitive ABPP, mouse brain membrane proteome: FAAH band
T2 sequence (O08914 1-579): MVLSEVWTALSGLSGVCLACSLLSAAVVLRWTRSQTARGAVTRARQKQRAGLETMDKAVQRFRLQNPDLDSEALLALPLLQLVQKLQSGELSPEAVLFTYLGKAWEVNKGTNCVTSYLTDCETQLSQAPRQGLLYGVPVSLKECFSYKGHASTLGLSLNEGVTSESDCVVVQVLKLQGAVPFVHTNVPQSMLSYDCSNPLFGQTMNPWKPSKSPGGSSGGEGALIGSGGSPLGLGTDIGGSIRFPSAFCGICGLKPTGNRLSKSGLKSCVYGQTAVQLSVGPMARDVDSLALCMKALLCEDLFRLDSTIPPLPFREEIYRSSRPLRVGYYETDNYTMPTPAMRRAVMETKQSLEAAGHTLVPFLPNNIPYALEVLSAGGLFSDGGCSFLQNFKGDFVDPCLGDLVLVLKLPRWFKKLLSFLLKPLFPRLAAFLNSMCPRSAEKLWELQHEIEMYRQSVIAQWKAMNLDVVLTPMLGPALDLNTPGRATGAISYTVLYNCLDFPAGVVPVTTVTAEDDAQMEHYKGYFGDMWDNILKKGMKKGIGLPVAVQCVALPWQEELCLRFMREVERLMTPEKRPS

[3] = target: T3, MAGL (Mus musculus, UniProt O35678); assay: Competitive ABPP, mouse brain membrane proteome: MAGL doublet
T3 sequence (O35678 1-303): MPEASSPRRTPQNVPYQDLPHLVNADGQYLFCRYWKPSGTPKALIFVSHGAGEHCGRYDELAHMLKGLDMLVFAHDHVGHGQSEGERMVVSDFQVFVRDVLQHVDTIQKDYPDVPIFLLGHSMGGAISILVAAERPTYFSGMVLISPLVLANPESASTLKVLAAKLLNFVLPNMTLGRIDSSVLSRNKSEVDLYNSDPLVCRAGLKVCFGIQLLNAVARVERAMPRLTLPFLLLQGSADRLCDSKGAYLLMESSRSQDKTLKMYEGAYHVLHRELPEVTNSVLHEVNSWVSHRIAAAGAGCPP

[4] = target: T4, hBAT5 (Homo sapiens, UniProt O95870); assay: Inhibition of 1-LG hydrolysis in hBAT5-HEK293 lysates (fluorescent glycerol assay); assay type: biochemical; design: host or cells: HEK293; conditions: 1-LG 25 µM; 30 min inhibitor pretreatment; monitored 90 min; mean, n=3; read-out: IC50
T4 sequence (O95870 1-558): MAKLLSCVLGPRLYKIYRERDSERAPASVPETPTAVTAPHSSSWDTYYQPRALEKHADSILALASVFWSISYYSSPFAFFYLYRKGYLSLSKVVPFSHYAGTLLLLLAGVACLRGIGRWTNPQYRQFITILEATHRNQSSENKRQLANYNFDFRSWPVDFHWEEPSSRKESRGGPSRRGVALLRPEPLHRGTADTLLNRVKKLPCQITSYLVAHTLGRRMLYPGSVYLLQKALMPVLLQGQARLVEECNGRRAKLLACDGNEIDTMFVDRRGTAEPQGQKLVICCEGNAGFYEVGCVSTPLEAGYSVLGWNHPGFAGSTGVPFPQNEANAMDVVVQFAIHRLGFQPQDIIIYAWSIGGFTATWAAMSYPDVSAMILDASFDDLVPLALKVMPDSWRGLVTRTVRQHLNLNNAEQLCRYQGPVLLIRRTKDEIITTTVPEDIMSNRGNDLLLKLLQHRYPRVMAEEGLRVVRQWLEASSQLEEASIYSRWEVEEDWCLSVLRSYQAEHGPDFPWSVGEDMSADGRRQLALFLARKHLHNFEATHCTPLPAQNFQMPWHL

[5] = target: T5, KIAA1363 (Mus musculus, UniProt Q8BLF1); assay: Competitive ABPP, mouse brain membrane proteome: KIAA1363 doublet; assay type: binding; conditions: 1 µM or indicated concentrations (Figure 11); 60 min
T5 construct: from tissue; host or cells: mouse whole brain membranes
T5 sequence (Q8BLF1 1-408): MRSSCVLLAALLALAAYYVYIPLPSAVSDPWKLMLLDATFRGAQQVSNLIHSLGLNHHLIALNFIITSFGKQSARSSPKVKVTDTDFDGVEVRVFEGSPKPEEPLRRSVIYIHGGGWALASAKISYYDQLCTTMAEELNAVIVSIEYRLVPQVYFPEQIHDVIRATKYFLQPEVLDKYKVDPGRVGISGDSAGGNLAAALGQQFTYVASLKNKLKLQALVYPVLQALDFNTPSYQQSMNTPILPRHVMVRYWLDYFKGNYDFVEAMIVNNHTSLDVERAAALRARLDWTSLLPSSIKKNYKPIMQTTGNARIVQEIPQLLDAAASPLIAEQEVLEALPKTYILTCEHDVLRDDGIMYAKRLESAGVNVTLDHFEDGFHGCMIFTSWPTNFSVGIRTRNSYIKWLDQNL

[6] = target: T6, BAT5 (Mus musculus, UniProt Q9Z1Q2); assay: Competitive ABPP, mouse brain membrane proteome: BAT5 band; conditions: for BAT5 selectivity among serine hydrolases as compared to 38: mouse brain membrane proteome, competitive ABPP
T6 sequence (Q9Z1Q2 1-558): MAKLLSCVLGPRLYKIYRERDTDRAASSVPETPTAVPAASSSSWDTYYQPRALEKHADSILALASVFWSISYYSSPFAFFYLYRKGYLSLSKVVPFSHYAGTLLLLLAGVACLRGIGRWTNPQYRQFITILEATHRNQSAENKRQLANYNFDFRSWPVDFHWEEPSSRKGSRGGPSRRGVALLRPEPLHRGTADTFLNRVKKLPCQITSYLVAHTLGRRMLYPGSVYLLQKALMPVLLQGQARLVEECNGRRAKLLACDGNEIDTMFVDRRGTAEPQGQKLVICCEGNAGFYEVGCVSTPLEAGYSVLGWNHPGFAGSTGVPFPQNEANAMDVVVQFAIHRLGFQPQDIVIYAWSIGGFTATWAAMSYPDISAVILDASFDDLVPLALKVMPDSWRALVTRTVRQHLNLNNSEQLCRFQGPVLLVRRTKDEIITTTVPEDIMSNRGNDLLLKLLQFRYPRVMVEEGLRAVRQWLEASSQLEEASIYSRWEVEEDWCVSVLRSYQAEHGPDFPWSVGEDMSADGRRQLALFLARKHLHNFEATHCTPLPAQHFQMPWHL

[7] = test system: LYPLA1/2; assay: Competitive ABPP, mouse brain membrane proteome: LYPLA1/2 band; conditions: 1 µM or indicated concentrations (Figure 11); 60 min
[8] = target: T7, hMAGL (Homo sapiens, UniProt Q99685); conditions: 15d-PGJ2-G as substrate for hMAGL; cited from earlier work
T7 construct: expressed in transfected cells; host or cells: HEK
T7 sequence (Q99685 1-303): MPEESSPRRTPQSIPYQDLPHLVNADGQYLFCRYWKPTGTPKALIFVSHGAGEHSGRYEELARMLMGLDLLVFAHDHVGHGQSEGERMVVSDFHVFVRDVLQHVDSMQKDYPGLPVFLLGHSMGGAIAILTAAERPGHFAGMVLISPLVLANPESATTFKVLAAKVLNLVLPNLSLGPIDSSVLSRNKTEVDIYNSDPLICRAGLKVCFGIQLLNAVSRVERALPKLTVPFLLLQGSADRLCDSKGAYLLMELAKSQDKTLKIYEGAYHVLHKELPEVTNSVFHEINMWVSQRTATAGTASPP

[9] = target: T4, hBAT5; assay: hBAT5 substrate hydrolysis and Michaelis-Menten kinetics (glycerol assay, hBAT5-HEK293 lysates); conditions: with 0.5% BSA
Experimental: HEK293 cells were transiently transfected with the cDNA encoding hBAT5, as detailed in the Methods section. After 48 h, cells were harvested and lysates prepared for hydrolase activity measurements using a sensitive fluorescent glycerol assay. […] Glycerol production was determined at time-point 60 min.
After 48 h, cells were harvested and lysates prepared for hydrolase activity measurements. Cellular lysates (0.3 µg/well) were incubated together with the indicated concentrations of 1-LG in assay mixes containing (+ BSA) or not (– BSA) 0.5% (w/v) BSA (A) or with 15d-PGJ2-G in assay mix containing BSA (B). […] As crude cellular lysates were used, total protein concentration was used instead of true enzyme concentration. […] Values are mean ± SEM from three independent experiments.
Glycerol liberated from the hydrolysis of glycerolipid substrates was determined kinetically using a fluorometric assay, essentially as previously described [10]. Briefly, glycerol production was coupled via a three-step enzymatic cascade to hydrogen peroxide (H2O2) dependent generation of resorufin whose fluorescence (λex 530; λem 590 nm) was kinetically monitored using a Tecan Infinite M200 plate reader (Tecan Group Ltd., Männedorf, Switzerland). The assays routinely contained 0.5% (w/v) BSA (essentially fatty acid free) as a carrier for lipophilic compounds. […] The twelve MAG substrates were tested also in assays without BSA. In addition, four commercially available PG-Gs were included. To monitor assay performance, assay blanks without enzyme, cellular background (HEK293/Mock cell lysates) as well as a glycerol standard were included for each tested substrate. Fluorescence of the assay blank was subtracted before calculation of the final results.

[10] = target: T8, hABHD12 (Homo sapiens, UniProt Q8N2K0); design: method as in PMID 22969151; conditions: hABHD12-HEK lysates; cited from earlier work
T8 construct: expressed in transfected cells; host or cells: HEK293
T8 sequence (Q8N2K0 1-398): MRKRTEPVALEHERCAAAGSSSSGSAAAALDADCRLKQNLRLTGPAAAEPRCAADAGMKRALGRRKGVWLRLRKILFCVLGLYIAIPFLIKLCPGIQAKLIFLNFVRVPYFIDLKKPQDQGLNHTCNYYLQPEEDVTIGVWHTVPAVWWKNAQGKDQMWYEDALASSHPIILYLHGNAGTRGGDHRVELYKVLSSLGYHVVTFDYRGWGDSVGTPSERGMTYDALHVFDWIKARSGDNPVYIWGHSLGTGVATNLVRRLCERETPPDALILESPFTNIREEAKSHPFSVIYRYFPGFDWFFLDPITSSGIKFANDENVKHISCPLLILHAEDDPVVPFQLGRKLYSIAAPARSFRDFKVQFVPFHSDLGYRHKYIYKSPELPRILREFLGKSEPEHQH

[11] = target: T7, hMAGL; assay: Hydrolase activity assay, hMAGL-HEK lysates; assay type: biochemical; conditions: at 10^−5 M; read-out: Remaining activity
[12] = target: T9, hFAAH (Homo sapiens, UniProt O00519); assay: FAAH activity assay, hFAAH-COS7 membranes (3H-anandamide); assay type: biochemical
T9 construct: expressed in transfected cells; host or cells: COS-7
T9 sequence (O00519 1-579): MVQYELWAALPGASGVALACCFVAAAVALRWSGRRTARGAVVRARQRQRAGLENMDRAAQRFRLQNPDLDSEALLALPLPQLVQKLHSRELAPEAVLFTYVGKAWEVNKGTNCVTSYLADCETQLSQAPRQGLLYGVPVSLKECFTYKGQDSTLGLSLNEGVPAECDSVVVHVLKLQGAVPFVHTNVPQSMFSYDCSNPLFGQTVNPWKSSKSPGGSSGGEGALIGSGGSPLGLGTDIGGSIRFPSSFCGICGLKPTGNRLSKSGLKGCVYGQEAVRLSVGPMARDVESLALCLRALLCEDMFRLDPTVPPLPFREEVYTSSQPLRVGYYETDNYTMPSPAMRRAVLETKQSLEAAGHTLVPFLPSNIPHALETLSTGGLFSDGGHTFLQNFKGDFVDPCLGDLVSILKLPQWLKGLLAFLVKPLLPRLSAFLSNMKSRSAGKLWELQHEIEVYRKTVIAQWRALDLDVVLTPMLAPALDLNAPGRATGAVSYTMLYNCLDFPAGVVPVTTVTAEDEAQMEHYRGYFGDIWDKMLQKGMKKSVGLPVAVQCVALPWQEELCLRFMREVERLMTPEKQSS

[13] = 1 µM or indicated concentrations (Figure 11), 60 min

O=C(Oc1ccc([N+](=O)[O-])cc1)N1CCN(Cc2cccc(Oc3ccccc3)c2)CC1 [JZL195]
inhibition of probe labeling of ABHD6 by reference inhibitor ([1]; reference inhibitor at the indicated concentration, used to identify the band (refs 18, 23, 24)): inhibited | inhibition of probe labeling of FAAH by reference inhibitor ([2]; reference inhibitor at the indicated concentration, used to identify the band (ref 21)): inhibited | inhibition of probe labeling of MAGL by reference inhibitor ([3]; reference inhibitor at the indicated concentration, used to identify the band (refs 21, 22)): inhibited

COc1nn(-c2cccc([N+](=O)[O-])c2)c(=O)o1 [compound 40, 5-Methoxy-3-(3-nitrophenyl)-1,3,4-oxadiazol-2(3H)-one]
IC50 [4]: 63 nM | inhibition of probe binding to FAAH [2, 13]: did not visibly affect probe binding | inhibition of probe binding to KIAA1363 [5]: did not visibly affect probe binding | BAT5 selectivity among serine hydrolases as compared to 38 [6]: improved BAT5 selectivity | inhibition of probe binding to MAGL [3, 13]: did not visibly affect probe binding | inhibition of probe binding to LYPLA1/2 [7]: did not visibly affect probe binding

COc1nn(-c2ccc(F)cc2)c(=O)o1 [compound 44]
inhibition of probe binding to KIAA1363 [5]: shared one off-target with 38 | BAT5 selectivity among serine hydrolases as compared to 38 [6]: improved BAT5 selectivity

CCCCC/C=C/C=C1/C(=O)C=CC1C/C=C\CCCC(=O)OC(CO)CO (stereo not drawn) [15d-PGJ2-G, 15-deoxy-Δ^12,14-prostaglandin J2-2-glycerol ester]
Km [8]: ~15 µM | hydrolysis by hBAT5 (substrate utilization, in words) ([9]; 25 µM substrate, 60 min): readily hydrolyzed | Km ([9]; substrate of hBAT5, time-point 90 min, n=3): 20.9 µM and ~21 µM | Vmax ([9]; substrate of hBAT5, total lysate protein, n=3): 3.0 ± 0.2 nmol/mg/min

CCCCCCCCCCC[C@@H](C[C@@H]1OC(=O)[C@H]1CCCCCC)OC(=O)[C@H](CC(C)C)NC=O [THL, tetrahydrolipstatin]
IC50 [10]: 193 nM | inhibition of probe labeling of ABHD6 by reference inhibitor [1]: inhibited | IC50 [4]: 170 nM | remaining activity at 10 µM [11]: 88.1% | inhibition of probe labeling of BAT5 by reference inhibitor ([6]; reference inhibitor at the indicated concentration, used to identify the band (refs 4, 18)): inhibited | remaining activity at 10 µM [12]: 100%
